Measured values: ChEMBL document CHEMBL3616452 (Eur J Med Chem, 2015)

Molecular target: Nucleoprotein (Influenza A virus (strain A/Wilson-Smith/1933 H1N1), UniProt P15682, S377G)
Test: Binding affinity to Influenza A virus (A/WSN/1933(H1N1)) nucleoprotein S377G mutant transfected in 293T cells assessed as inhibition of RNA dependent RNA polymerase activity
Type: cell-based, Influenza A virus (A/Weiss/1943(H1N1))

Structure (SMILES)	IC50
Cn1c(=O)c2c(-c3ccccc3)n3c(c2n(C)c1=O)C(c1ccccc1F)OCC3(C)C (configuration not stated)	1700 nM
Cc1onc(-c2ccccc2Cl)c1C(=O)N1CCN(c2ccc([N+](=O)[O-])cc2)CC1	300 nM
